Laboratory results published in US12297192B2, “Crystal form of pyrimidine sulfonamide compound and preparation method therefor” (WUXI BIOCITY BIOPHARMACEUTICS CO., LTD., priority 2019, dated 2025).
Several values for one entry are separate records, joined by “and”; a condition that tells them apart may be missing. Identical values can stand only once. Where a SMILES comes first, the peptide text is derived from it. [ ]: non-standard residue; d: D form.

Assays:
[1] = molecular target: T1, human ETA receptors (Homo sapiens, UniProt P25101); assay: In vitro antagonistic effect on human ETA receptors (Ca2+ fluorescence, SK-N-MC cells); assay type: cell-based; conditions: SK-N-MC cells, 1 nM endothelin-1
T1 construct: endogenously expressed human ETA receptors in SK-N-MC cells; host or cells: SK-N-MC cells
T1 sequence (P25101 21-427): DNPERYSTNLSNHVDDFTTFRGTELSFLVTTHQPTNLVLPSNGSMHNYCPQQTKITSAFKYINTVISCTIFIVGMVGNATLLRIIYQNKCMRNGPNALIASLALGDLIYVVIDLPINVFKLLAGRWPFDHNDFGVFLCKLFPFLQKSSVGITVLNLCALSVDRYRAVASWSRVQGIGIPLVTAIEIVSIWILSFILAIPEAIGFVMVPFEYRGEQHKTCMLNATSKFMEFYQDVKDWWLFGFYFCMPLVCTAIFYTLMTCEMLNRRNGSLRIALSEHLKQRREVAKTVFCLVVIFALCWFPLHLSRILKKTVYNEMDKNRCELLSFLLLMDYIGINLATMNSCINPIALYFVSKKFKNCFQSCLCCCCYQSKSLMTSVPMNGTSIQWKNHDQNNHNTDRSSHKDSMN
Experimental: The antagonistic activity of the compounds on endogenously expressed human ETA receptors in SK-N-MC cells was assessed by measuring the effects of the compounds on changes in cytoplasmic Ca^2+ ion signaling induced by an agonist of human ETA receptor using a fluorescence assay. The functional activity of the ETA receptor antagonistic effect was tested at Eurofins-Cerep SA according to current standard operating procedures.
• 1. Cells were suspended in Dulbecco's modified Eagle medium solution (DMEM, Invitrogen) supplemented with 1% FCSd and then distributed at a density of 5×10^4 cells/well in 384 plates (100 μL/well). • 2. Hank's Balanced Salt Solution (HBSS, Invitrogen) supplemented with 20 mM 4-(2-hydroxyethyl) piperazine-1-ethanesulfonic acid (Hepes, Invitrogen) (pH 7.4) was mixed with the fluorescent probe (Fluo4 NW, Invitrogen) and added to each well. Equilibrated with the cells for 60 minutes at 37° C. and then for 15 min at 22° C. • 3. The assay plate was placed in a microplate reader (CellLux, PerkinElmer). DMSO solution of the test compound and the positive control in appropriate concentration or HBSS buffer was added. After 5 minutes, 1 nM endothelin-1 or HBSS buffer (basal control) was added. Then the change in fluorescence intensity was measured. The fluorescence intensity is in proportion to the Ca^2+ ion concentration of the free cytosol. • 4. […] The standard positive control was BQ-123 and several concentrations were tested in each experiment and the data was analyzed using Prism to produce a concentration-response curve to calculate the IC50 values of the compounds. • 6.

[2] = molecular target: T2, human ETB receptors (Homo sapiens, UniProt P24530); assay: In vitro antagonistic effect on human ETB receptors (Ca2+ fluorescence, transfected CHO cells); assay type: cell-based; conditions: 0.3 nM endothelin-1
T2 construct: host or cells: CHO cells
T2 sequence (P24530 27-442): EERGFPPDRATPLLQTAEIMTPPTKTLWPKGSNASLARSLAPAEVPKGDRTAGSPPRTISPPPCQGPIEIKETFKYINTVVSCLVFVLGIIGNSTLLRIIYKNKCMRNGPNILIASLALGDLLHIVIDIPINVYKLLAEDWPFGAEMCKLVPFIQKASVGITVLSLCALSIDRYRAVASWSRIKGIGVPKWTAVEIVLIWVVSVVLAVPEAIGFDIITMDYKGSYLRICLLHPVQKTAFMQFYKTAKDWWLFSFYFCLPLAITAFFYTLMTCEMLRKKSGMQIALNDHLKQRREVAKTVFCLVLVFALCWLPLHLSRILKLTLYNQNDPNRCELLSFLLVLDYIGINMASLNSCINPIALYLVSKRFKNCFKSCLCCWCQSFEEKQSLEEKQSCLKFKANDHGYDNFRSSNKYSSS
Experimental: The antagonist activities of the compounds on human ETB receptors expressed in transfected CHO cells were assessed by measuring the effects of the compounds on changes in cytoplasmic Ca^2+ ion signaling induced by an agonist of human ETB receptor using a fluorescence assay. The functional activity of the ETB receptor antagonistic effect was tested at Eurofins-Cerep SA according to current standard operating procedures.
• 1. Cells were suspended in DMEM buffer (Invitrogen) and then distributed at a density of 3×10^4 cells/well in 384 plates (100 μL/well). • 2. HBSS buffer (Invitrogen) supplemented with 20 mM Hepes (Invitrogen) (pH 7.4) was mixed with the fluorescent probe (Fluo4 Direct, Invitrogen) and added to each well. Equilibrated with the cells for 60 minutes at 37° C. and then for 15 minutes at 22° C. • 3. The assay plate was placed in a microplate reader (CellLux, PerkinElmer). DMSO solution of the test compound and the positive control or HBSS buffer in appropriate concentration was added. […] Then the change in fluorescence intensity was measured. The fluorescence intensity is in proportion to the Ca^2+ ion concentration of the free cytosol. • 4. […] The standard positive control was BQ-788 and several concentrations were tested in each experiment and the data was analyzed using Prism to produce a concentration-response curve to calculate the IC50 values of the compounds. […]

Row | Compound | IC50 [1] | IC50 [2]
1 | CC(C)C[C@@H]1NC(=O)[C@@H](C(C)C)NC(=O)[C@@H]2CCCN2C(=O)[C@@H](CC(=O)O)NC(=O)[C@@H](Cc2c[nH]c3ccccc23)NC1=O [BQ-123, reference compound] (cyclo(L[dW][dD]P[dV])) | 0.61 nM and 0.48 nM | –
2 | CCCC[C@@H](NC(=O)[C@@H](Cc1cn(C(=O)OC)c2ccccc12)NC(=O)[C@H](CC(C)(C)C)NC(=O)N1[C@H](C)CCC[C@@H]1C)C(=O)O [BQ-788] | – | 130 nM and 91 nM
